The text below walks through data of patent US20260091026A1, “METHODS OF TREATING INFLAMMATORY DISEASES” (INTERLINE THERAPEUTICS, INC., priority 2023, published 2026).

Molecules are shown by their SMILES. Where two headings read alike, the source gives them in different places.

Assay [1] addresses T1, RIPK2 (KD)/XIAP (BIR2) (Homo sapiens, UniProt O43353).
T1 construct: made in house; host or cells: baculovirus-infected Sf9 cells
Put plainly: RIPK2-XIAP binding competition PPI assay (TR-FRET). Conditions: for IC50: GST-RIPK2 / His-XIAP (BIR2)-avi, 120 min at 23° C.; for Emax: read-out: PPI Amax. In a few lines:
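After 2 h at 23 °C, complex formation was read as the 665/520 nm emission ratio (337 nm excitation), scaled between uninhibited reaction and 50 nM GSK583. The mix held 1 nM human RIPK2 kinase fragment-GST, 25 nM His-tagged XIAP BIR2 and Tb/XL665 antibodies in pH 7.5 Tris buffer containing vanadate and glycerophosphate.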
For orientation: Time-resolved FRET reads energy transfer from a long-lived donor to a nearby acceptor.

In assay [2] the test system is THP1-Dual cells, NF-κB pathway (SEAP). The assay is described as follows: THP-1 Dual cell SEAP assay (L18-MDP stimulated). The format is cell-based. Particulars: 10 ng/mL L18-MDP, 20-24 h, SEAP readout, read-out: IFNγ THP1 IC50. In a few lines:
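IC50 values come from non-linear fits of % inhibition of SEAP, measured as QUANTI-Blue optical density (620-655 nm, 2 h) in media-blanked supernatants. These were taken from THP1-Dual cells treated with compound for 30 min before overnight exposure to 10 ng/mL L18-MDP final at 37 °C.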

The target in assay [3] is T2, GST-RIPK2 fusion protein (human RIPK2 amino acids 1-310) (Homo sapiens, UniProt O43353).
T2 construct: made in house; host or cells: baculovirus-infected Sf9 cells
T2 sequence (O43353 1-310): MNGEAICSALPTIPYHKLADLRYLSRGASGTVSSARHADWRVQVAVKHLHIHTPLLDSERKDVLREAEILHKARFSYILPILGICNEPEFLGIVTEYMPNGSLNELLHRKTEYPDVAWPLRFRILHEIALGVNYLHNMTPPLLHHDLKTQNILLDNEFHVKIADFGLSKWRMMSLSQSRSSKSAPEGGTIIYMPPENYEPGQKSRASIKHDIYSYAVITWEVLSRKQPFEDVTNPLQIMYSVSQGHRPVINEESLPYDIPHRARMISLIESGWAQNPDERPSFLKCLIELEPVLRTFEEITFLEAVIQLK
The assay is described as follows: RIPK2 binding competition assay (TR-FRET, Tracer 199). Particulars: displacement of Tracer 199 (10 nM), 45 min at 22° C. The text has this: The ability of selected compounds of Formulas (I) and (II) to inhibit the binding of an Alexa647-labelled ATP-competitive kinase inhibitor to a GST-RIPK2 fusion protein was quantified employing the TR-FRET-based RIPK2 binding competition assay as described in the following paragraphs.
Recombinant fusion protein of N-terminal Glutathione-S-Transferase (GST) and a fragment of human RIPK2 (amino acids 1-310 of accession number 043353), expressed in baculovirus infected Sf9 cells, purified via glutathione affinity chromatography, was used as GST-RIPK2 fusion protein. Tracer 199 from Life Technologies (catalogue no. PR9115B) was used as Alexa647-labelled ATP-competitive kinase inhibitor.
For the assay, 50 nL of a 100-fold concentrated solution of each test compound in DMSO was pipetted into either a black low volume 384-well microtiter plate or a black 1536-well microtiter plate (both Greiner Bio-One, Frickenhausen, Germany), 3 μL solution of Tracer 199 (16.7 nM=>final concentration in 5 μL assay volume is 10 nM) in aqueous assay buffer (25 mM Tris/HCl pH 7.5, 10 mM magnesium chloride (MgCl2), 5 mM β-glycerophosphate, 2.5 mM dithiothreitol (DTT), 0.5 mM ethylene glycol-bis(2-aminoethylether)-N,N,N′,N′-tetraacetic acid (EGTA), 0.5 mM sodium ortho-vanadate, 0.01% (w/v) bovine serum albumin (BSA), 0.005% (w/v) Pluronic F-127 (Sigma)) were added. Then the binding competition was started by the addition of 2 μL of a solution of the GST-RIPK2 fusion protein (2.5 nM=>final conc. in the 5 μL assay volume is 1 nM) and of Anti-GST-Tb (1.25 nM=>final conc. in the 5 μL assay volume is 0.5 nM), a Lumi4®—Tb cryptate-conjugated anti-GST antibody from PerkinElmer (catalogue no 61GSTTAH), in assay buffer.
The resulting mixture was incubated 45 min at 22° C. to allow the formation of a complex between the Tracer 199, the fusion protein and Anti-GST-Tb. Subsequently, the amount of this complex was evaluated by measurement of the resonance energy transfer from the Tb-cryptate to the Tracer 199. Therefore, the fluorescence emissions at 620 nm and 665 nm after excitation at 337 nm were measured in a TR-FRET reader, e.g. a Pherastar FS(BMG Labtechnologies, Offenburg, Germany) or a Viewlux (PerkinElmer). The ratio of the emissions at 665 nm and at 620 nm was taken as the measure of the amount of the complex. The data were normalized (assay reaction without inhibitor=0% activity, all other assay components but no GST-RIPK2 fusion protein=−100% activity).

The mark [4] stands for this setting: 50 nM of GSK583 = -100% activity.

T1 sequence (O43353 1-310): as above

As a reminder, the IC50 is the point on the concentration scale where inhibition reaches its midpoint. Regarding `COc1cc2ncc(-n3cc(NC(=O)N4CCCC4c4ccccc4)cn3)n2cc1S(=O)(=O)C(C)(C)C` (single isomer, unassigned) [Example 179, (S)- or (R)-N-(1-(6-(tert-butylsulfonyl)-7-methoxyimidazo[1,2-a]pyridin-3-yl)-1H-pyrazol-4-yl)-2-phenylpyrrolidine-1-carboxamide], in assay [1] (setting [4]), the “PPI Amax” value was “A (Amax of ≥80%)”. Moreover, the results for the IC50 in assay [1], in assay [2] and in assay [3] were greater than 1000 nM, greater than 2500 nM and 500 to 1000 nM, respectively.
Consider `COc1cc2ncc(-n3cc(NC(=O)C4(F)CCC5(CC5)CC4)cn3)n2cc1S(=O)(=O)C(C)(C)C` [Example 174, N-(1-(6-(tert-butylsulfonyl)-7-methoxyimidazo[1,2-a]pyridin-3-yl)-1H-pyrazol-4-yl)-6-fluorospiro[2.5]octane-6-carboxamide], for which the Emax in assay [1] (setting [4]) is no less than 80%. Besides, the IC50 in assay [1] was greater than 1000 nM; in assay [2] (Homo sapiens), greater than 2500 nM; in assay [3], 500 to 1000 nM.
Turning to `COc1ccn2ncc(-c3cc(NC(=O)C4(F)CCCCC4)n(CCO)n3)c2n1` [compound 194], the Emax in assay [1] (setting [4]) was no more than 30%. Also, the figures for the IC50 in assay [1], in assay [2] (Homo sapiens) and in assay [3] were greater than 1000 nM, greater than 2500 nM and greater than 1000 nM, respectively.
As for `COc1cc2ncc(-c3cc(NC(=O)C4(F)CCCCC4)n(C)n3)n2cc1S(=O)(=O)C(C)(C)C` [Example 176, N-(3-(6-(tert-butylsulfonyl)-7-methoxyimidazo[1,2-a]pyridin-3-yl)-1-methyl-1H-pyrazol-5-yl)-1-fluorocyclohexane-1-carboxamide], the Emax in assay [1] (setting [4]) is no less than 80%. Besides, the IC50 was 100 to 1000 nM in assay [1], 500 to 2500 nM in assay [2] (Homo sapiens) and less than 200 nM in assay [3].
Take `COc1cc2ncc(-c3cc(C(=O)NC4CCCCC4)n(C)n3)n2cc1S(=O)(=O)C(C)(C)C` [Example 6, 3-(6-(tert-butylsulfonyl)-7-methoxyimidazo[1,2-a]pyridin-3-yl)-N-cyclohexyl-1-methyl-1H-pyrazole-5-carboxamide]: the Emax in assay [1] (setting [4]) was no less than 80%. The IC50 in assay [1] was greater than 1000 nM; in assay [2] (Homo sapiens), greater than 2500 nM; in assay [3], greater than 1000 nM.
Regarding `COc1cc2ncc(-c3cc(NC(=O)Cc4ccccc4Cl)n(C)n3)n2cc1C1(F)CCN(C)CC1` [Example 186, 2-(2-chlorophenyl)-N-(3-(6-(4-fluoro-1-methylpiperidin-4-yl)-7-methoxyimidazo[1,2-a]pyridin-3-yl)-1-methyl-1H-pyrazol-5-yl)acetamide], in assay [1] (setting [4]), the Emax is no less than 80%. For the same molecule, the IC50 in assay [1] was 10 to 100 nM; in assay [2] (Homo sapiens) it was 500 to 2500 nM; in assay [3], less than 200 nM.
On to `COc1cc2ncc(-n3cc(NC(=O)N4CCCC4c4ccccc4)cn3)n2cc1S(=O)(=O)C(C)(C)C` (racemic) [Example 177, N-(1-(6-(tert-butylsulfonyl)-7-methoxyimidazo[1,2-a]pyridin-3-yl)-1H-pyrazol-4-yl)-2-phenylpyrrolidine-1-carboxamide], for which, in assay [1] (setting [4]), the Emax is no less than 80%. The concentration for half-maximal inhibition (IC50) in assay [1] is greater than 1000 nM; in assay [2] (Homo sapiens) it was greater than 2500 nM; in assay [3], greater than 1000 nM.
Consider `COc1cc2ncc(-c3cc(NC(=O)Cc4ccccc4Cl)n(C)n3)n2cc1S(=O)(=O)C(C)(C)C` [Example 185, N-(3-(6-(tert-butylsulfonyl)-7-methoxyimidazo[1,2-a]pyridin-3-yl)-1-methyl-1H-pyrazol-5-yl)-2-(2-chlorophenyl)acetamide], for which the Emax in assay [1] (setting [4]) was no less than 80%. The IC50 in assay [1] is 10 to 100 nM; in assay [2] (Homo sapiens), 500 to 2500 nM; in assay [3], less than 200 nM.
As to `COc1cc2ncc(-n3cc(NC(=O)[C@@H](c4ccccc4)N(C)C)cn3)n2cc1S(=O)(=O)C(C)(C)C` [Example 166, (R)-N-(1-(6-(tert-butylsulfonyl)-7-methoxyimidazo[1,2-a]pyridin-3-yl)-1H-pyrazol-4-yl)-2-(dimethylamino)-2-phenylacetamide], the Emax in assay [1] (setting [4]) was no less than 80%. Moreover, the IC50 in assay [1] was greater than 1000 nM; in assay [2] (Homo sapiens), greater than 2500 nM; in assay [3], greater than 1000 nM.
For the molecule `COc1cc2ncc(-c3cc(NC(=O)C4(F)CCCCC4)n(CCO)n3)n2cc1S(=O)(=O)C(C)(C)C` [Example 193, N-(3-(6-(tert-butylsulfonyl)-7-methoxyimidazo[1,2-a]pyridin-3-yl)-1-(2-hydroxyethyl)-1H-pyrazol-5-yl)-1-fluorocyclohexane-1-carboxamide], in assay [1] (setting [4]), the Emax was no less than 80%. Besides, the IC50 was 100 to 1000 nM in assay [1], greater than 2500 nM in assay [2] (Homo sapiens) and less than 200 nM in assay [3].
For `COc1cc2ncc(-n3cc(NC(=O)OC(C)(C)C)cn3)n2cc1S(=O)(=O)C(C)(C)C` [Example 154, tert-butyl (1-(6-(tert-butylsulfonyl)-7-methoxyimidazo[1,2-a]pyridin-3-yl)-1H-pyrazol-4-yl)carbamate] the same measures were no less than 80%, greater than 1000 nM, greater than 2500 nM and 500 to 1000 nM.
With `COc1cc2ncc(-n3cc(N4CCC5(CCCCC5)C4=O)cn3)n2cc1S(=O)(=O)C(C)(C)C` [Example 181, 2-(1-(6-(tert-butylsulfonyl)-7-methoxyimidazo[1,2-a]pyridin-3-yl)-1H-pyrazol-4-yl)-2-azaspiro[4.5]decan-1-one], in assay [1] (setting [4]), the Emax lay in the range of 30 to 55%. The IC50 is greater than 1000 nM in assay [1], greater than 2500 nM in assay [2] (Homo sapiens) and greater than 1000 nM in assay [3].
Take `COc1cc2ncc(-n3cc(NC(=O)Cc4ccccc4Cl)cn3)n2cc1S(=O)(=O)C(C)(C)C` [Example 152, N-(1-(6-(tert-butylsulfonyl)-7-methoxyimidazo[1,2-a]pyridin-3-yl)-1H-pyrazol-4-yl)-2-(2-chlorophenyl)acetamide]: the Emax in assay [1] (setting [4]) is no less than 80%. Also, the IC50 in assay [1] is 100 to 1000 nM; in assay [2] (Homo sapiens) it was greater than 2500 nM; in assay [3] it was less than 200 nM.
For `COc1cc2ncc(-n3cc(NC(=O)C4CCC(F)(F)CC4)cn3)n2cc1S(=O)(=O)C(C)(C)C` [Example 165, N-(1-(6-(tert-butylsulfonyl)-7-methoxyimidazo[1,2-a]pyridin-3-yl)-1H-pyrazol-4-yl)-4,4-difluorocyclohexane-1-carboxamide], in that order: 55 to 80%, greater than 1000 nM, greater than 2500 nM and greater than 1000 nM.
On to `COc1cc2ncc(-n3cc(C(=O)NCc4c(F)cc(F)cc4F)cn3)n2cc1S(=O)(=O)C(C)(C)C` [Example 3, 1-(6-(tert-butylsulfonyl)-7-methoxyimidazo [1,2-a]pyridin-3-yl)-N-(2,4,6-trifluorobenzyl)-1H-pyrazole-4-carboxamide], for which, in assay [1] (setting [4]), the Emax was 30 to 55%. Also, the IC50 was greater than 1000 nM in assay [1], greater than 2500 nM in assay [2] (Homo sapiens) and greater than 1000 nM in assay [3].
Regarding `COc1cc2ncc(-n3cc(NC(=O)Cc4cc(F)ccc4Cl)cn3)n2cc1S(=O)(=O)C(C)(C)C` [Example 157, N-(1-(6-(tert-butylsulfonyl)-7-methoxyimidazo[1,2-a]pyridin-3-yl)-1H-pyrazol-4-yl)-2-(2-chloro-5-fluorophenyl)acetamide], the Emax in assay [1] (setting [4]) is no less than 80%. Further, the IC50 was greater than 1000 nM in assay [1], greater than 2500 nM in assay [2] (Homo sapiens) and 500 to 1000 nM in assay [3].
